According to patent US20090203709A1, “Pharmaceutical Dosage Form For Oral Administration Of Tyrosine Kinase Inhibitor” (ABBOTT LABORATORIES, priority 2008, published 2009):
Entries after “also recorded” stand apart in the source; their conditions may differ. Read-outs that look alike come from different tables or passages of the source.

Experiment: Study M04-710 pharmacokinetics, multiple-dose escalation, non-hematologic malignancies
Format: in vivo, human
Details: for AUC∞/D / Cmax/D / AUC0-24/D / Cmax / Tmax / AUC(0-t) / AUC(0-inf) / clearance / half-life: mean ± SD; for Cmax / Tmax / AUC(0-t) / AUC(0-inf) / clearance / half-life: human, plasma; for AUC(0-t): read-out: AUC0-24
Protocol: In study M04-710, blood samples for pharmacokinetic analysis were collected on Days 1 and 15 at the following times: 0 (pre-dose), 0.5, 1, 2, 3, 4, 6, 8, and 24 h (Day 1 only).
In study M05-756, blood samples for pharmacokinetic analysis were collected on Days 1 and 8 at the following times: 0 (pre-dose), 0.5, 1, 2, 3, 4, 6, 8, and 24 h (Day 1 only). Urine was collected for the 24 hour period following dosing on Day 13 through bedtime on Day 14 (non-hematologic malignancy study) and following dosing after Day 6 and through bedtime on Day 7 (AML/MDS study). Plasma and urine concentrations of ABT-869 were determined under the supervision of the Drug Analysis Department at Abbott using LCMS/MS. PK parameters were determined by noncompartmental analysis using WinNonlin Professional Version 5.0.1.

[1] = Study Day 1, 10 mg (~0.20 mg/kg)
[2] = Study Day 15, 10 mg (~0.20 mg/kg)
[3] = oral, 0.1 mg/kg, Study Day 15, 0.10 mg/kg
[4] = oral, 0.1 mg/kg, Study Day 1, 0.10 mg/kg
[5] = oral, 0.25 mg/kg, Study Day 1, 0.25 mg/kg
[6] = oral, 0.25 mg/kg, Study Day 15, 0.25 mg/kg
[7] = oral, 0.3 mg/kg, Study Day 15, 0.30 mg/kg
[8] = oral, 0.3 mg/kg, Study Day 1, 0.30 mg/kg
[9] = oral, 10 mg, Study Day 1, 10 mg (~0.20 mg/kg)
[10] = oral, 10 mg, Study Day 15, 10 mg (~0.20 mg/kg)
[11] = oral, Study Day 1, 10 mg (~0.20 mg/kg)

dose recovered in the urine as unchanged ABT-869 (24 hour urine, N=4): ~4%
AUC∞/D (Study Day 1, 0.10 mg/kg): 0.51 ± 0.21 µg·h/mL/mg
Cmax/D (Study Day 1, 0.10 mg/kg): 0.020 ± 0.007 µg/mL/mg
AUC∞/D (Study Day 1, 0.25 mg/kg): 0.41 ± 0.19 µg·h/mL/mg
Cmax/D (Study Day 1, 0.25 mg/kg): 0.019 ± 0.006 µg/mL/mg
AUC∞/D (Study Day 1, 0.30 mg/kg): 0.47 ± 0.19 µg·h/mL/mg
Cmax/D (Study Day 1, 0.30 mg/kg): 0.020 ± 0.008 µg/mL/mg
AUC∞/D [1]: 0.41 ± 0.22 µg·h/mL/mg
Cmax/D [1]: 0.021 ± 0.012 µg/mL/mg
AUC0-24/D (Study Day 15, 0.10 mg/kg): 0.35 ± 0.15 µg·h/mL/mg
Cmax/D (Study Day 15, 0.10 mg/kg): 0.024 ± 0.008 µg/mL/mg
AUC0-24/D (Study Day 15, 0.25 mg/kg): 0.30 ± 0.08 µg·h/mL/mg
Cmax/D (Study Day 15, 0.25 mg/kg): 0.022 ± 0.006 µg/mL/mg
AUC0-24/D (Study Day 15, 0.30 mg/kg): 0.30 ± 0.07 µg·h/mL/mg
Cmax/D (Study Day 15, 0.30 mg/kg): 0.022 ± 0.008 µg/mL/mg
AUC0-24/D [2]: 0.35 ± 0.20 µg·h/mL/mg
Cmax/D [2]: 0.026 ± 0.019 µg/mL/mg
Cmax [3]: 140 ± 50 ng/mL
Tmax [3]: 3.7 ± 1.5 h
AUC(0-t) [3]: 2100 ± 900 ng·h/mL
AUC(0-inf) [4]: 3100 ± 1400 ng·h/mL
Cmax [4]: 120 ± 50 ng/mL
Tmax [4]: 3.5 ± 1.5 h
clearance [4]: 38.3 mL/min
half-life [4]: 19 ± 5.6 h
Cmax [5]: 260 ± 90 ng/mL
Tmax [5]: 2.7 ± 0.8 h
Cmax [6]: 310 ± 120 ng/mL
Tmax [6]: 3.5 ± 1 h
Cmax [7]: 390 ± 170 ng/mL
Tmax [7]: 3.3 ± 0.6 h
AUC(0-t) [7]: 5300 ± 1500 ng·h/mL
AUC(0-inf) [8]: 7900 ± 2000 ng·h/mL
Cmax [8]: 340 ± 90 ng/mL
Tmax [8]: 2 h
clearance [8]: 40 mL/min
half-life [8]: 22 ± 2.4 h
Cmax [9]: 210 ± 120 ng/mL
Tmax [9]: 3.3 ± 1.5 h
Cmax [10]: 220 ± 170 ng/mL
Tmax [10]: 3 h
AUC(0-inf) (oral, Study Day 1, 0.25 mg/kg): 5800 ± 2900 ng·h/mL
clearance (oral, Study Day 1, 0.25 mg/kg): 50 mL/min
half-life (oral, Study Day 1, 0.25 mg/kg): 18.9 ± 6.2 h
AUC(0-inf) [11]: 4100 ± 2200 ng·h/mL
clearance [11]: 50 mL/min
half-life [11]: 14.4 ± 4.6 h
AUC(0-t) (oral, Study Day 15, 0.25 mg/kg): 4300 ± 2100 ng·h/mL
AUC(0-t) (oral, Study Day 15, 10 mg (~0.20 mg/kg)): 3000 ± 1500 ng·h/mL
SMILES: Cc1ccc(F)c(NC(=O)Nc2ccc(-c3cccc4[nH]nc(N)c34)cc2)c1 [ABT-869, N-[4-(3-amino-1H-indazol-4-yl)phenyl]-N′-(2-fluoro-5-methylphenyl)urea]
dose proportionality and time dependence of PK (0.10 to 0.30 mg/kg QD, oral): dose-proportional and time-invariant; also recorded: approximately dose-proportional (0.10-0.30 mg/kg QD, oral) and time independent with minimal accumulation at day 15
